Reference: article PMC12802110, “Biochemical characterization of the full-length isoform of soluble adenylyl cyclase” (The Journal of Biological Chemistry, 2025)
Where two headings read alike, the source gives them in different places. Each block holds one molecule with its values, some of them ahead of it.

Tests used:
[1] = test system: mouse and human sACfl and sACt; assay: In vitro adenylyl cyclase activity assay, one result stated for all four sAC proteins; assay type: biochemical; settings: for inhibition of cyclase activity at 10 mM: 10 mM test substance
human sACfl = molecular target: T1, human sACfl (Homo sapiens, UniProt Q96PN6); assay: In vitro adenylyl cyclase activity assay (two-column method), heterologously expressed human sACfl (GFP nanobody purified, complexed with Hsp70); assay type: biochemical; settings: for EC50: 2 mM ATP
T1 construct: Schematic of full-length (sACfl) and truncated (sACt) sAC isoforms; eGFP (C, cleaved yes); His-tag (on eGFP) (C, cleaved yes); PreScission protease site (C); made in house; host or cells: Expi293 cells

mouse sACfl = molecular target: T2, mouse sACfl (Mus musculus, UniProt Q8C0T9); assay: In vitro adenylyl cyclase activity assay (two-column method), endogenous mouse sACfl (FLAG); assay type: biochemical; settings: for EC50: 2 mM ATP
T2 construct: Schematic of full-length (sACfl) and truncated (sACt) sAC isoforms; from tissue; host or cells: testes of homozygous double knock-in mice (FLAG pulldown, eluted with 3xFLAG peptide)
Source text: (§1) […]. To determine specific activities of endogenous mouse proteins, sACfl and sACt were quantitated by Western blot. For ATP kinetics, representative experiments are shown with SEM determined from normalized data.

mouse sACt = molecular target: T3, mouse sACt (Mus musculus, UniProt Q8C0T9); assay: In vitro adenylyl cyclase activity assay (two-column method), endogenous mouse sACt (Strep); assay type: biochemical; settings: for EC50: 2 mM ATP
T3 construct: from tissue; host or cells: testes of homozygous double knock-in mice (Strep pulldown after FLAG depletion, eluted with biotin)
T3 sequence (Q8C0T9 1-471 isoform Q8C0T9-2): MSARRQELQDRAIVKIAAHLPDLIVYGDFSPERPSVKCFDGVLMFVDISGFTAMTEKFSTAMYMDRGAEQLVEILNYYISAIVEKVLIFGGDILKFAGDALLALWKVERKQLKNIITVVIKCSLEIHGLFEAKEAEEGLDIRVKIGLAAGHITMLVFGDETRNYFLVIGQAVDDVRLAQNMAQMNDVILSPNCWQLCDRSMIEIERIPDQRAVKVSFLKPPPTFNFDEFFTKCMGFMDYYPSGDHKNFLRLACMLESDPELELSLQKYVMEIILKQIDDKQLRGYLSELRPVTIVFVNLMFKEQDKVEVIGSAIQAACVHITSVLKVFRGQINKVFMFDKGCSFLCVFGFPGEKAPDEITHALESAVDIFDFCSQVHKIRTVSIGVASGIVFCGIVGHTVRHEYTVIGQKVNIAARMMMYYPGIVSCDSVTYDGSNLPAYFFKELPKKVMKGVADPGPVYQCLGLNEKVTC
Source text: as §1

sAC = test system: sAC; design: method as in PMID 24100033; settings: read-out: KM of sAC's substrate ATP; cited from earlier work
human sACt = molecular target: T4, human sACt (Homo sapiens, UniProt Q96PN6); assay: In vitro adenylyl cyclase activity assay (two-column method), heterologously expressed human sACt (GST); assay type: biochemical; settings: for EC50: 2 mM ATP
T4 construct: sACt contains only the C1 and C2 catalytic domains; GST; made in house
T4 sequence (Q96PN6 1-469 limits assumed): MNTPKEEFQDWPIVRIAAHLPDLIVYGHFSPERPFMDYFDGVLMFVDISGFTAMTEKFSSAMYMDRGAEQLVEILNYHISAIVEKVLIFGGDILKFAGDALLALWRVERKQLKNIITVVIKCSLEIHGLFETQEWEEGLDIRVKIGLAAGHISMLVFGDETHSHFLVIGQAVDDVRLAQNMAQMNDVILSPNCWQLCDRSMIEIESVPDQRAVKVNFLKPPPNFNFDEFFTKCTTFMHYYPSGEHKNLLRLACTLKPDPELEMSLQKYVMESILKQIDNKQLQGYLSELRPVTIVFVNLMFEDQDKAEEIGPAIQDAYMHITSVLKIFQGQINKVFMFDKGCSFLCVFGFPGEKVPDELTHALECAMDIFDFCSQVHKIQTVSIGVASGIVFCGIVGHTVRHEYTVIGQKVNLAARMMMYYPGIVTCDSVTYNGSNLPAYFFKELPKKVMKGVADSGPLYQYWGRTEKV

[2] = molecular target: T5, mouse sAC isoforms (sACfl and sACt) (Mus musculus, UniProt Q8C0T9); assay: In vitro adenylyl cyclase activity assay, one result stated for both mouse sAC isoforms; settings: read-out: IC50, mouse sAC; text summary (Fig. 5)
T5 sequence (Q8C0T9 1-469 limits assumed): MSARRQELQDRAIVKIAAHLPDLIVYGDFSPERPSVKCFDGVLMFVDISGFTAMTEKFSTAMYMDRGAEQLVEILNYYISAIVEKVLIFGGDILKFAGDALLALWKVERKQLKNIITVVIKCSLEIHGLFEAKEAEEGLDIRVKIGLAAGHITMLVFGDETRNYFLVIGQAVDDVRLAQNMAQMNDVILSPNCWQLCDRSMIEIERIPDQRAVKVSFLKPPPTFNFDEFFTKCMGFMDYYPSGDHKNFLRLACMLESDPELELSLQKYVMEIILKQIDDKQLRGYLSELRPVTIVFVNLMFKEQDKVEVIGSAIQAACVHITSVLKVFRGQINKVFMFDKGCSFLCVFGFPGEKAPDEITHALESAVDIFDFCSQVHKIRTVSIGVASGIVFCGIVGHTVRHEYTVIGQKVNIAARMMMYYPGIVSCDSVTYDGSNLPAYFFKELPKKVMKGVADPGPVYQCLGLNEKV

[3] = 2 mM ATP, 10 mM MgCl2, 10 mM CaCl2, 40 mM NaHCO3
[4] = in the presence of Mg^2+, Ca^2+ and HCO3^- (20-40 mM MgCl2, 10 mM CaCl2, 40 mM NaHCO3), read-out: KM for substrate Mg^2+-ATP
[5] = 10 mM MgCl2, 40 mM NaHCO3, read-out: EC50 for Ca^2+
[6] = 10 mM MgCl2, 10 mM CaCl2, read-out: EC50 for HCO3^-
[7] = 10 mM MgCl2, 10 mM CaCl2, 40 mM NaHCO3

T1 sequence (Q96PN6 whole entry, the tested form may be a part, canonical isoform): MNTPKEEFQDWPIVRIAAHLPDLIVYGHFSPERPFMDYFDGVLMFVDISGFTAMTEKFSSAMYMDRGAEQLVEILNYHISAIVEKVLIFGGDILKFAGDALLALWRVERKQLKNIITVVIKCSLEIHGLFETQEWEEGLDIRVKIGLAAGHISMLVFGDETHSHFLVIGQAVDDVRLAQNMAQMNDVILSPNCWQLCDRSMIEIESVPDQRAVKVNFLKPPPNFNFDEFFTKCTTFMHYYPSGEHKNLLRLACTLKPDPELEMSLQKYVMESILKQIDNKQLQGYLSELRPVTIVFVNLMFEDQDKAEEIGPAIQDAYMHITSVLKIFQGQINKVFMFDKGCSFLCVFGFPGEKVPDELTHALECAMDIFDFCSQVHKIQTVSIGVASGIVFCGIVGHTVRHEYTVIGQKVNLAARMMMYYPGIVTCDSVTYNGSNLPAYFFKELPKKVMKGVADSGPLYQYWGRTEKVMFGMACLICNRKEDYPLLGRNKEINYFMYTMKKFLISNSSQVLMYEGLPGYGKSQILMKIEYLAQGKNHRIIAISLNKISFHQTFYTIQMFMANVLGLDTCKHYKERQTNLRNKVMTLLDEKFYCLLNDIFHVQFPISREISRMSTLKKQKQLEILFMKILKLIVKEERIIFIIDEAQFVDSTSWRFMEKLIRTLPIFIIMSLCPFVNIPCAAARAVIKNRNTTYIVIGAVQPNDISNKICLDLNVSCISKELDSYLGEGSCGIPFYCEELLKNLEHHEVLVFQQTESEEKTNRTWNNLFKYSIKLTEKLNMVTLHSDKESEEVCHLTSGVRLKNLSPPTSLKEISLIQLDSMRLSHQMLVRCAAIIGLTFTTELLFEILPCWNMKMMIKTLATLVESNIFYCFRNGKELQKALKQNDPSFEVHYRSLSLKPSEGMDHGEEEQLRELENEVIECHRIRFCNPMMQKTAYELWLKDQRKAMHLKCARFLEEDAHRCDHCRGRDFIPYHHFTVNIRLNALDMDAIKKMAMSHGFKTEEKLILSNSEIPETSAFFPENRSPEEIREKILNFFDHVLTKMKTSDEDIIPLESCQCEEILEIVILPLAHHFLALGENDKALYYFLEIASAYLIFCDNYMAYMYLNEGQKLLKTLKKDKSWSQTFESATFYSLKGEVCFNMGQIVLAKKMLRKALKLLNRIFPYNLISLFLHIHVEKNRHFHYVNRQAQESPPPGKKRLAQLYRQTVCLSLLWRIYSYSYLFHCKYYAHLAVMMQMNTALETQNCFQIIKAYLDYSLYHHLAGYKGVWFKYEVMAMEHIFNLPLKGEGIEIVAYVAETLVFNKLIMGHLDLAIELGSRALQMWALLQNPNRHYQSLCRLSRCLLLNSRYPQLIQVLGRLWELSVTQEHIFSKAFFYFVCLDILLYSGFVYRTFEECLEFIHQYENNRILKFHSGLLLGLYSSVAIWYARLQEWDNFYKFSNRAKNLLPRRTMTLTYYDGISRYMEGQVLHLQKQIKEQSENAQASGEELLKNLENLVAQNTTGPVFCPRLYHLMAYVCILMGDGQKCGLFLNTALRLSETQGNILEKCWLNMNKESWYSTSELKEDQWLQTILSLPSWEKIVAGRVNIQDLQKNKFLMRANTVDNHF
T1 sequence (P0DMV8 whole entry partner, the tested form may be a part, canonical isoform): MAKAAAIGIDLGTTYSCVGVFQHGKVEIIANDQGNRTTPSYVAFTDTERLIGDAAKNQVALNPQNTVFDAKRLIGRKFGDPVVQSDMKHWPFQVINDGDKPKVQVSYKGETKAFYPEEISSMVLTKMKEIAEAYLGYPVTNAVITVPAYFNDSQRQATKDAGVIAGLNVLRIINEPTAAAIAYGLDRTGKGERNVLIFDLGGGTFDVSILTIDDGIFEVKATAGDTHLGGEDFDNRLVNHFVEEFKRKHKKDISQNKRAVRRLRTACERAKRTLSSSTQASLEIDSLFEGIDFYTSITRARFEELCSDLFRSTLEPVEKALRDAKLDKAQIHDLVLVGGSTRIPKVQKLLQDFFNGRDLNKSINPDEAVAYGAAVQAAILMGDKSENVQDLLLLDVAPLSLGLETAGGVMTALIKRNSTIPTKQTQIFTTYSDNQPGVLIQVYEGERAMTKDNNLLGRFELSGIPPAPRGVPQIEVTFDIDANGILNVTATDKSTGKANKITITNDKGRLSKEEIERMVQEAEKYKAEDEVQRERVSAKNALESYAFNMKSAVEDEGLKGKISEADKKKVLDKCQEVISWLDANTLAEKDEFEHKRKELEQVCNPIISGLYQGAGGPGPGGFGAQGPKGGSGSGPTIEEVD
T2 sequence (Q8C0T9 whole entry, the tested form may be a part, canonical isoform): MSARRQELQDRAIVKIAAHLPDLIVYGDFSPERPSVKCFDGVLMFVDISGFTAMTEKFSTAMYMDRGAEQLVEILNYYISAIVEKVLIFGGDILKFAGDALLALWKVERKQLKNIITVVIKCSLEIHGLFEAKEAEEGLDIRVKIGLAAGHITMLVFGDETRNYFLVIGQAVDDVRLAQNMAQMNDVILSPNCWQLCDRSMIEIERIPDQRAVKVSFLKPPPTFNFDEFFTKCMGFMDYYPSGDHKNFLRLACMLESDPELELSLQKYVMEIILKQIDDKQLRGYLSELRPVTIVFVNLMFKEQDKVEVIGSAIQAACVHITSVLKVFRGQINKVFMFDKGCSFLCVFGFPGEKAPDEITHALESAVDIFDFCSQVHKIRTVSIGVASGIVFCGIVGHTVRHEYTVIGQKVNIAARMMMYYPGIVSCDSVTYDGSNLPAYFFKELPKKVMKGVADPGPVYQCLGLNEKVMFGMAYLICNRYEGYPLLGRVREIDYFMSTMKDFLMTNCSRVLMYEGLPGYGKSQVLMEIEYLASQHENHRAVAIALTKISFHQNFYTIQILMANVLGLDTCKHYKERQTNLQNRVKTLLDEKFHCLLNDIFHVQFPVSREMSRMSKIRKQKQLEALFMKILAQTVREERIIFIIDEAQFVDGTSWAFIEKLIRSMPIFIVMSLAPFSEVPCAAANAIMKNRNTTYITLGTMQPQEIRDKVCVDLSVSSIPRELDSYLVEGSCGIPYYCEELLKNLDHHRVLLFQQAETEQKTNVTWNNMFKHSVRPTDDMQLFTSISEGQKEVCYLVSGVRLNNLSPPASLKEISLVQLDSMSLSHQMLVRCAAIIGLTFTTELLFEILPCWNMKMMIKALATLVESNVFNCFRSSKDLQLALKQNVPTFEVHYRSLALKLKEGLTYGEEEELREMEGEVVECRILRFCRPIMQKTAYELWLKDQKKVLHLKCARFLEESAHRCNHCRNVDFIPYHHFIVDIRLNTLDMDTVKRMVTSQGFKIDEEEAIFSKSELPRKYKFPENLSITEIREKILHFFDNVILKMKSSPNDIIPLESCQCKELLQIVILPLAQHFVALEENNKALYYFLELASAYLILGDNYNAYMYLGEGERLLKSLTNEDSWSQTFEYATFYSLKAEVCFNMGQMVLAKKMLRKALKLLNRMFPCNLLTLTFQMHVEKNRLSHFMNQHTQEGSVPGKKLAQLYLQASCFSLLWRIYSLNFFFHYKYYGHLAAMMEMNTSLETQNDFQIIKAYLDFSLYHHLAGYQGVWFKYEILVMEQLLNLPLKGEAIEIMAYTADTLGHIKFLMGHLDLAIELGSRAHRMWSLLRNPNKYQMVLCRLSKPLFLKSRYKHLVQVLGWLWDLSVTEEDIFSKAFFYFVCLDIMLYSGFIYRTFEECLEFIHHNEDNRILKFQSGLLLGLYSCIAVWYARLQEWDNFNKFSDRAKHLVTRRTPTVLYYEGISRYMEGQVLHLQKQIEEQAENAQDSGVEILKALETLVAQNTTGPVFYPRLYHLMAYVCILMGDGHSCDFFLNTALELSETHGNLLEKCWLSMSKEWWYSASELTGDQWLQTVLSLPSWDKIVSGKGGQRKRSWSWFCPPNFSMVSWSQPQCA

Compound: Nc1ncnc2c1ncn2[C@@H]1O[C@H](COP(=O)(O)OP(=O)(O)O)[C@@H](O)[C@H]1O [ADP]
inhibition of cyclase activity at 10 mM [1, 3]: ∼75% inhibition at 10 mM
inhibition of cyclase activity (in words) ([1]; at 10 mM): some inhibition

Compound: Nc1ncnc2c1ncn2[C@@H]1O[C@H](COP(=O)(O)O)[C@@H](O)[C@H]1O [AMP]
inhibition of cyclase activity at 10 mM [1, 3]: No inhibition at 10 mM
inhibition of cyclase activity (in words) ([1]; at concentrations up to 10 mM): no inhibition

Compound: Nc1ncnc2c1ncn2[C@@H]1O[C@H](COP(=O)(O)OP(=O)(O)OP(=O)(O)O)[C@@H](O)[C@H]1O [ATP]
Km (human sACfl; [4]): 2200 ± 300 µM
Km (mouse sACfl; [4]): 2200 ± 390 µM
Km (mouse sACt; [4]): 2700 ± 250 µM
Km (sAC): ~2000 µM
Km (human sACt; [4]): 1800 ± 280 µM

Compound: Nc1ncnc2c1ncn2[C@@H]1O[C@H](CO)[C@@H](O)[C@H]1O [Adenosine]
inhibition of cyclase activity at 10 mM [1, 3]: >50% inhibition at 10 mM
inhibition of cyclase activity (in words) ([1]; at 10 mM): some inhibition

Compound: Nc1ccn([C@@H]2O[C@H](COP(=O)(O)OP(=O)(O)OP(=O)(O)O)[C@@H](O)[C@H]2O)c(=O)n1 [CTP]
inhibition of cyclase activity at 10 mM [1, 3]: >50% inhibition at 10 mM

Compound: [Ca+2].[Cl-].[Cl-] [Ca^2+]
EC50 (human sACfl; [5]): 1700 ± 150 µM
EC50 (mouse sACfl; [5]): 1300 ± 150 µM
EC50 (mouse sACt; [5]): 1400 ± 110 µM
EC50 (human sACt; [5]): 1700 ± 160 µM

Compound: Nc1nc2c(ncn2[C@@H]2O[C@H](COP(=O)(O)OP(=O)(O)O)[C@@H](O)[C@H]2O)c(=O)[nH]1 [GDP]
inhibition of cyclase activity at 10 mM [1, 3]: ∼75% inhibition at 10 mM
inhibition of cyclase activity (in words) ([1]; at 10 mM): some inhibition

Compound: Nc1nc2c(ncn2[C@@H]2O[C@H](COP(=O)(O)O)[C@@H](O)[C@H]2O)c(=O)[nH]1 [GMP]
inhibition of cyclase activity at 10 mM [1, 3]: No inhibition at 10 mM
inhibition of cyclase activity (in words) ([1]; at concentrations up to 10 mM): no inhibition

Compound: Nc1nc2c(ncn2[C@@H]2O[C@H](COP(=O)(O)OP(=O)(O)OP(=O)(O)O)[C@@H](O)[C@H]2O)c(=O)[nH]1 [GTP]
inhibition of cyclase activity at 10 mM [1, 3]: ∼50% inhibition at 10 mM

Compound: Nc1nc(Cl)cc(-c2nn(C(F)F)cc2Cc2ccccc2OCCN2CCOC[C@H]2CO)n1 [TDI-11861]
IC50 (mouse sACfl; [7]): 0.0224 ± 0.0093 µM
IC50 (mouse sACt; [7]): 0.0211 ± 0.0045 µM
IC50 [2]: ~0.021 µM

Further lines, results first:

EC50 (human sACfl; [6]): 14000 ± 1200 µM
EC50 (mouse sACfl; [6]): 21000 ± 1900 µM
EC50 (mouse sACt; [6]): 19000 ± 1600 µM
EC50 (human sACt; [6]): 14000 ± 1000 µM
Compound: O=C(O)O [HCO3^–]

inhibition of cyclase activity at 10 mM [1, 3]: ∼50% inhibition at 10 mM
Compound: O=c1[nH]cnc2c1ncn2[C@@H]1O[C@H](COP(=O)(O)OP(=O)(O)OP(=O)(O)O)[C@@H](O)[C@H]1O [ITP]

inhibition of cyclase activity at 1 mM ([1]; 1 mM test substance, 2 mM ATP, 10 mM MgCl2, 10 mM CaCl2, 40 mM NaHCO3): ~25%
inhibition of cyclase activity at 10 mM [1, 3]: > 90%
inhibition of cyclase activity (in words) ([1]; at 1 mM): slight inhibition
inhibition of cyclase activity (in words) ([1]; at concentrations >10 mM): fully inhibited
Compound: O=P(O)(O)OP(=O)(O)O [Pyrophosphate]

inhibition of cyclase activity at 10 mM [1, 3]: ∼50% inhibition at 10 mM
Compound: Cc1cn([C@H]2C[C@H](O)[C@@H](COP(=O)(O)OP(=O)(O)OP(=O)(O)O)O2)c(=O)[nH]c1=O [TTP]

inhibition of cyclase activity at 10 mM [1, 3]: ∼50% inhibition at 10 mM
Compound: O=c1ccn([C@@H]2O[C@H](COP(=O)(O)OP(=O)(O)OP(=O)(O)O)[C@@H](O)[C@H]2O)c(=O)[nH]1 [UTP]
